{
  "source": "paper PMC5451472",
  "about": "“Novel Locally Active Estrogens Accelerate Cutaneous Wound Healing-Part 2” (Scientific Reports, 2017)",
  "key": {"[1]": {"system": "MITO-Luc mice", "experiment": "Granulation tissue histoscore of round full-thickness wound at day 10", "type": "in vivo, mouse", "details": "200 µg/kg s.c., day 10, round wound, scale 1-3 (vehicle 0.3)", "experimental": "The measure of photon emission from the wound area was done for several days after the wounding. 3 days after treatment the bioluminescent signal is highest (Fig. 10 Panel a).\n(§1) Ovariectomy was carried out as previously described. Wound healing was done after shaving by VEET depilatory cream a day before the treatment. The 1 cm full-thickness incisional wound was made through the skin and panniculus carnosus muscle of ovariectomized MITO-luc using a surgical scalpel (blade n°10, carbon steel, Swann-Morton Ltd). Round full-thickness wounds were done by cutting out a section of full-thickness skin (around 9 mm in diameter) using fine scissors on the dorsal skin of the isoflurane-anesthetized animal. For in vivo treatment the compounds were administered onto the subcutaneous area surrounding the wound by multiple subcutaneous injection, immediately after the generation of the wound.\nAt the time of euthanasia, the wounds with surrounding healthy tissue were excised, distended on a strip of hard paper and fixed in 10% buffered formalin (pH = 6). […] For histopathological examination 4 µm sections were routinely stained with Hematoxylin-Eosin (HE) and evaluated under a light microscope. The degree of re-epithelialization, the type and amount of granulation tissue and inflammation, which are the main features of wound healing, were scored separately. […]"}, "[2]": {"system": "MITO-Luc mice", "experiment": "Wound area measurement in MITO-Luc mice", "type": "in vivo, mouse", "details": "200 µg/kg s.c., 72 hours after treatment (vehicle 50%)", "experimental": "To investigate to which extent the increased proliferation observed after the pharmacological treatments was functional to the healing process, we measured the size of the wound (Fig. 9a).\nas §1"}, "[3]": {"system": "MITO-Luc mice", "experiment": "Macrophage count (Iba1 immunohistochemistry) around the wound site", "type": "in vivo, mouse", "details": "200 µg/kg s.c., 72 hours after treatment", "experimental": "To better understand whether the healing effect of 1e could be attributed to its anti-inflammatory action, at the end of in vivo imaging (72 hours after treatments) the tissue surrounding the wound was dissected and subjected immunohistochemical analysis using the pan macrophage marker Iba1. […] This observation confirmed that the estrogenic compounds were able to regulate the immune response at local level.\nIn particular, the criteria for the assignation of granulations value are: 1 = wound bed partially covered with granulation tissue; 2 = thin granulation over the whole wound bed; 3 = thick granulation over the whole wound bed. Evaluation of macrophages was done through a specific antibody and digital image analysis: 4 µm sections from each wound healing sample were immunostained with primary rabbit […] antibody against Iba1 antigen (Wako; #019-19741) to assess the number of macrophages.\nThe number of positive cells were counted using the ImageJ analysis program (http://rsb.info.nih.gov/ij/) in 400x microscopic fields selected at the periphery of the wound area."}, "[4]": {"system": "ER transcriptional activity", "experiment": "In vivo BLI time course in wounded ovariectomized ERE-Luc mice, compounds s.c. around the wound", "set-up": "species or system mouse", "experimental": "To study the estrogenic and healing properties of the two compounds, we generated a wound in the ERE-Luc mouse model and tested the activity of the two compounds administered s.c. in the area surrounding the wound as described in the methodology section.\nEach group was composed of 4 ERE-Luc females’ mice ovariectomized 2 weeks’ prior the experiment to avoid any interference due to endogenous estrogens. Photon emission was measured in the living animals three times: at 0, 3 and 6 h after s.c. injection.\n(§2) ERE-Luc and MITO-Luc mice were ovariectomized at two months of age; the experiment was done 2 weeks after surgery to allow the animals to recover and to decrease the levels of circulating estrogens. The animals were fed ad libitum with a special estrogen free diet (AIN 93 M, Mucedola) (Ciana et al. Endocrinology 2005) and housed in individually ventilated plastic cages within a temperature range of 22–25 °C, relative humidity of 50% ± 10% and under an automatic cycle of 12 h light/dark (lights on at 07:00 am). All animal experimentation was carried out in accordance with the ARRIVE and European Guidelines for Animal Care. All animal experiments were approved by the Italian Ministry of Research and University and controlled by a Departmental panel of experts. For the correct dosage of the compounds, the body weight of the animals (on empty stomach, fasted for at least 12–14 hours) was determined immediately before the treatment.\nas §1\nFor the semi-quantitative analysis of in vivo photon emission, animals were injected i.p. with 80 mg/kg of luciferin (Beetle Luciferin Potassium Salt; Promega, Madison, WI, USA) 15 min prior the imaging session. For the imaging, mice were anaesthetized using isofluorane (Isofluorane-Vet; Merial, Lyon, France) and kept under anesthesia during the 5 minutes of the session carried out with a CCD camera: both ventral and dorsal acquisition (Xenogen IVIS Lumina System; Caliper, PerkinElmer company). Photon emission in selected body areas was measured using the Living Image Software (Caliper, PerkinElmer company). The analysis was done in ventral view: whole body, thymus, hepatic area, abdomen, limbs, vagina and in dorsal view in wound area and expressed as photon/second/cm2/steradiant (p/s/cm2/sr)."}, "[5]": {"system": "ERE-Luc mice", "experiment": "Uterus weight of ERE-Luc mice", "type": "in vivo, mouse", "details": "200 µg/kg s.c., 6 h after treatment, n = 4", "description": "The final study aiming at investigating the systemic effect of the NCE was done by measuring the uterus weight of all treated animal as the golden standard for the quantitative measure of estrogenic compounds."}, "[6]": {"system": "MITO-Luc mice (reporter of mitosis)", "experiment": "Proliferation in the wound area, in vivo BLI of MITO-Luc mice", "set-up": "species or system mouse", "description": "Wound healing is a dynamic process consisting of four continuous, overlapping, and precisely programmed phases: hemostasis, inflammation, proliferation and tissue growth (proliferation) and remodeling (maturation). The healing effect of estrogens may be exerted at several levels, certainly the ability of the hormone to accelerate macrophage polarization towards the M2-reparative polarization stage plays a relevant role, however estrogens may also facilitate local cell proliferation and the formation of the granulation tissue, epithelialization, and wound contraction.\nThe experiments were done with the 1e compound as completely deprived of any activity on the uterus (Fig. 6). […] Photon emission was measured in the wound area at the following time: 0, 24, 48 and 72 hours post-treatment.\nas §2\nas §1, with “For in vivo treatment the compounds were administered onto the subcutaneous area surrounding the wound by multiple subcutaneous injection, immediately after the generation of the wound.” left out\nFor the semi-quantitative analysis of in vivo photon emission, animals were injected i.p. with 80 mg/kg of luciferin (Beetle Luciferin Potassium Salt; Promega, Madison, WI, USA) 15 min prior the imaging session. […] Photon emission in selected body areas was measured using the Living Image Software (Caliper, PerkinElmer company). The analysis was done in ventral view: whole body, thymus, hepatic area, abdomen, limbs, vagina and in dorsal view in wound area and expressed as photon/second/cm2/steradiant (p/s/cm2/sr)."}},
  "data": [
    {"compound": "CCCCOC(=O)CCC#C[C@]1(O)CC[C@H]2[C@@H]3CCc4cc(O)ccc4[C@H]3CC[C@@]21C", "note": "[1e, 3,17β-Hydroxy-17α-(4′carbobutoxy-1′-butyn-1′-yl)estra-1,3,5-(10)-triene]", "values": [
      {"measurement": "Score of granulation tissue (fibrosis), histoscore mean", "setting": "[1]", "value": 1.5},
      {"measurement": "wound area reduction", "setting": "[2]", "value": 73, "unit": "%"},
      {"measurement": "number of macrophages (Iba1 positive) in the wound area lower than in controls", "setting": "[3]", "value": 25, "unit": "%"},
      {"measurement": "photon emission in body areas (whole body, thymus, hepatic area, abdomen, limbs, vagina)", "setting": "[4]; 200 µg/kg s.c. around wound, 3 or 6 h, ovx mice", "value": "did not observe increased photon emission in any of the body areas"},
      {"measurement": "increase of photon emission in the wound area with respect to time 0", "setting": "[4]; 200 µg/kg s.c., 6 hours, trend", "value": 30, "unit": "%"},
      {"measurement": "weight of the uterus versus controls", "setting": "[5]", "value": "indistinguishable from controls"},
      {"measurement": "increase of photon emission from wound", "setting": "[6]; 200 µg/kg s.c. around wound, 72 h versus time 0, ovx MITO-Luc", "value": 87, "unit": "%"},
      {"measurement": "photon emission from the wound area", "setting": "[6]; 200 µg/kg s.c., 48 hours after administration", "value": "significantly increased"}
    ]}
  ]
}
